Results on three compounds are retold here after patent publication US6306907A, “Antipsychotic” (Taiyo Fishery Co., Ltd., priority 1992, dated 2001).

The test system of one data set is NMDA receptors. The data set is described as follows: Electrophysiological patch clamp test of the NMDA-induced current in hippocampal CA1 neurons. The format is cell-based, rat. As to the method:
Under the circumstances, the effects of docosahexaenoic acid on NMDA receptors of PCP were investigated.
The investigation was conducted by an electrophysiological procedure. More specifically, the brain of a 2-week-old rat was delivered and slices were prepared. Then, neurons were taken from the hippocampal CA1 region and used as samples. An electrophysiological test was conducted by a patch clamp method under fixed potential conditions.
On the technique in general: The patch-clamp technique gives a direct electrical read-out from membranes.

In data set [1] the test system is negative symptoms of schizophrenia. The data set is described as follows: One-month oral administration to subjects, compared with placebo. It is filed as in vivo. The note with it: human, oral 300 mg three times a day. As to the method: Sixteen subjects aged from 35 to 60 were treated with either the antipsychotic of the present invention or a placebo. Eleven out of these sixteen subjects had been treated with chlorpromazine and haloperidol in the past. Eight subjects were treated with the antipsychotic of the present invention and the other eight were treated with the placebo.
Docosahexaenoic acid or placebo was orally administered to the subjects three times a day, each in a dose of 300 mg.

For the compound `CN[C@H](CC(=O)O)C(=O)O` [NMDA, N-methyl-D-aspartic acid], the “inward current caused by NMDA” value in the data set with NMDA receptors (30 μM NMDA, holding potential -50 mV, rat hippocampal CA1 neurons) was determined as 300 pA.

As for `c1ccc(C2(N3CCCCC3)CCCCC2)cc1` [PCP, phencyclidine], the “change of NMDA-induced current on treatment with PCP” value in the data set on NMDA receptors (5 μM PCP and 30 μM NMDA) was “decreased by half”. As to `CC/C=C\C/C=C\C/C=C\C/C=C\C/C=C\C/C=C\CCC(=O)O` [docosahexaenoic acid], in data set [1], the primary side effects result was “neither primary side effects”; the “variations in biochemical blood and urine tests” value is “nor significant variations in biochemical blood and urine tests”.
